75 compounds from article PMC12040169 (PLOS Biology, 2025) can be followed below.

This data set can be described thus: in vitro. The note with it: human, hela cells, % viability.

In general, viability refers to a read-out of living cells in per cent, often relative to untreated cells.

For the compound `Cc1ccc(NS(=O)(=O)c2cc3c(OC4CCNCC4)nccc3s2)cc1` [CBK046309C], the viability at 28.5 h, 10 µM worked out at 96%.

Take `COc1ccc([C@@]23CC[C@@H](C(=O)Nc4ccc(C(F)(F)F)cn4)C[C@@H]2N(C)CC3)cc1OC` [CBK046310T]: the viability at 28.5 h, 10 µM came to 87.3%.

Turning to `NCC(=O)Nc1ccc(F)c(F)c1` [CBK046313], the viability at 28.5 h, 10 µM was 103%.

With `NCC(=O)Nc1ccc(Cl)c(Cl)c1` [CBK046317], the viability at 28.5 h, 10 µM is 94.3%.

Consider `CC(=O)NCc1ccc(C)n1C` [CBK046356], for which the viability at 28.5 h, 10 µM was found to be 106%.

With `CC(C)(CC(=O)O)CC(=O)N1CCCC1c1nc(-c2ccccc2)c2ccccn12` (stereo not drawn) [CBK046399], the viability at 28.5 h, 10 µM is 98.8%.

Consider `CCc1ccc(OCCNc2cc(N3CCN(CCO)CC3)ccc2[N+](=O)[O-])cc1` [CBK046496], for which the viability at 28.5 h, 10 µM came out at 91.7%.

On to `CCOC(=O)CNC(=O)N1CCCC1c1nc(-c2ccccc2)c2ccccn12` (stereo not drawn) [CBK046502], for which the viability at 28.5 h, 10 µM amounted to 103%.

Regarding `Cc1ccc(-c2nc(C3CCCN3C(=O)C3CC3C(=O)O)n3ccccc23)cc1` (stereo not drawn) [CBK046559], the viability at 28.5 h, 10 µM is 79.8%.

On to `COC(=O)c1ccc(NC(=O)N2CCCC2c2nc(-c3ccccc3)c3ccccn23)cc1` (stereo not drawn) [CBK046725], for which the viability at 28.5 h, 10 µM was 102%.

As to `Cc1ccccc1NC(=O)N1CCC2(CC1)NCCc1c2[nH]c2ccc(O)cc12` [CBK046904], the viability at 28.5 h, 10 µM is 91%.

For `CC(C)NC(=O)N1CCCC1c1nc(-c2ccc(Cl)cc2)c2ccccn12` (stereo not drawn) [CBK046947], the viability at 28.5 h, 10 µM was 84%.

As for `CC(C)NC(=O)N1CCCC2(C1)NCCc1c2[nH]c2ccccc12` (stereo not drawn) [CBK046952], the viability at 28.5 h, 10 µM was 86.7%.

Take `CCC(C)(CC(=O)O)CC(=O)N1CCC2(C1)NCCc1c2[nH]c2ccccc12` (stereo not drawn) [CBK047003]: the viability at 28.5 h, 10 µM was found to be 88.5%.

Take `C/C(C(=O)O)=C(/C)C(=O)N1CCC2(CC1)NCCc1c2[nH]c2ccc(C)cc12` [CBK047026]: the viability at 28.5 h, 10 µM was 100%.

As for `O=C(O)/C(Cl)=C(\Cl)C(=O)N1CCC2(CC1)OCCc1c2[nH]c2ccccc12` [CBK047035], the viability at 28.5 h, 10 µM turned out to be 85%.

In the case of `C[C@H](NC(=O)N1CCC2(CC1)NCCc1c2[nH]c2ccc(Cl)cc12)c1ccccc1` [CBK047046], the viability at 28.5 h, 10 µM was 90%.

As to `CCC(C)(CC(=O)O)CC(=O)N1CCC2(CC1)OCCc1c2[nH]c2ccccc12` (stereo not drawn) [CBK047051], the viability at 28.5 h, 10 µM was 102%.

On to `Cc1ccc2[nH]c3c(c2c1)CCNC31CCN(C(=O)Nc2c(C)noc2C)CC1` [CBK047071], for which the viability at 28.5 h, 10 µM was 83.1%.

Consider `COc1ccc2[nH]c3c(c2c1)CCOC31CCN(C(=O)N[C@@H](C)c2ccccc2)CC1` [CBK047114], for which the viability at 28.5 h, 10 µM was found to be 98.5%.

As for `O=C(NCCc1cccs1)N1CCC2(CC1)OCCc1c2[nH]c2ccccc12` [CBK047129], the viability at 28.5 h, 10 µM amounted to 85.4%.

Turning to `COc1ccc2[nH]c3c(c2c1)CCOC31CCN(C(=O)Nc2ccc(C(C)C)cc2)CC1` [CBK047154], the viability at 28.5 h, 10 µM stood at 95.5%.

As to `O=C(O)C1CC1C(=O)N1CCC2(CC1)OCCc1c2[nH]c2ccccc12` (stereo not drawn) [CBK047167], the viability at 28.5 h, 10 µM turned out to be 89.2%.

On to `O=C(O)COCC(=O)N1CCC2(CC1)NC(=O)Cc1c2ccc2ccccc12` [CBK047168], for which the viability at 28.5 h, 10 µM turned out to be 88.4%.

As to `O=C1Cc2cc3ccccc3cc2C2(CCN(C(=O)C3CCC3C(=O)O)CC2)N1` (stereo not drawn) [CBK047252], the viability at 28.5 h, 10 µM amounted to 92.5%.

For the compound `Cc1ccc2c(c1)CC(=O)NC21CCN(C(=O)C2CC2C(=O)O)CC1` (stereo not drawn) [CBK047258], the viability at 28.5 h, 10 µM amounted to 103%.

On to `CC(CC(=O)O)CC(=O)N1CCC2(CC1)NC(=O)Cc1ccccc12` (stereo not drawn) [CBK047281], for which the viability at 28.5 h, 10 µM was 95.3%.

`O=C1Cc2ccccc2C2(CCN(C(=O)Nc3c(F)cccc3F)CC2)N1` [CBK047296]: the viability at 28.5 h, 10 µM is 89%.

For the compound `O=C1Cc2ccccc2C2(CCN(C(=O)c3cccc4cccc(C(=O)O)c34)CC2)N1` [CBK047313], the viability at 28.5 h, 10 µM worked out at 93.2%.

With `COc1ccc2c(c1)CC(=O)NC21CCN(C(=O)N[C@@H](C)c2ccccc2)CC1` [CBK047325], the viability at 28.5 h, 10 µM was 92.4%.

Regarding `C=CCNC(=O)N1CCC2(CC1)OCCc1c2n(C)c2ccccc12` [CBK047354], the viability at 28.5 h, 10 µM was 84.8%.

`CCOC(=O)c1ccc(NC(=O)N2CCC3(CC2)NC(=O)Cc2ccccc23)cc1` [CBK047362]: the viability at 28.5 h, 10 µM is 107%.

In the case of `CCOC(=O)c1[nH]c2ccccc2c1NS(=O)(=O)c1ccc(NC(C)=O)cc1` [CBK047411], the viability at 28.5 h, 10 µM turned out to be 81.4%.

For the compound `CCOC(=O)c1[nH]c2ccccc2c1NS(=O)(=O)Cc1ccccc1` [CBK047413], the viability at 28.5 h, 10 µM was determined as 93.1%.

On to `CCOC(=O)c1[nH]c2ccccc2c1NS(=O)(=O)c1ccc(OC)c(OC)c1` [CBK047421], for which the viability at 28.5 h, 10 µM was 86%.

In the case of `CCOC(=O)c1[nH]c2ccccc2c1NS(=O)(=O)c1cccc(Cl)c1C` [CBK047423], the viability at 28.5 h, 10 µM stood at 88.9%.

Consider `CCOC(=O)c1[nH]c2ccccc2c1NS(=O)(=O)c1ccc(C)c([N+](=O)[O-])c1` [CBK047427], for which the viability at 28.5 h, 10 µM was found to be 97.6%.

`CCOC(=O)c1sc(NS(=O)(=O)c2cccc3cccnc23)nc1C` [CBK047443]: the viability at 28.5 h, 10 µM was found to be 91.6%.

In the case of `CCOC(=O)c1sc(NS(=O)(=O)Cc2ccccc2[N+](=O)[O-])nc1C` [CBK047458], the viability at 28.5 h, 10 µM was determined as 98.5%.

Consider `CNC(=O)CC1SC(NC2CC3C=CC2C3)=NC1=O` (stereo not drawn) [CBK047491], for which the viability at 28.5 h, 10 µM worked out at 90.7%.

On to `CC(=O)Nc1ccc(SC(C)c2nsc(NS(=O)(=O)c3ccc(-c4ccccc4)cc3)n2)cc1` (stereo not drawn) [CBK047508], for which the viability at 28.5 h, 10 µM came out at 91.5%.

With `O=C(Nc1ccc(F)c(F)c1)N[C@H]1CC[C@@]2(c3cccc(Br)c3)CCN(Cc3ccccc3)[C@H]2C1` [CBK047515], the viability at 28.5 h, 10 µM amounted to 107%.

On to `COc1ccc([C@@]23CCC(NC(=O)Nc4ccccc4OC(F)F)C[C@@H]2N(C)CC3)cc1OC` (stereo partly drawn) [CBK047547T], for which the viability at 28.5 h, 10 µM stood at 97.9%.

Take `COc1ccc([C@@]23CCC(NC(=O)Nc4cc(C(F)(F)F)ccc4F)C[C@@H]2N(C)CC3)cc1OC` (stereo partly drawn) [CBK047552T]: the viability at 28.5 h, 10 µM was determined as 87.2%.

For the compound `CNC(=O)c1cc(-c2cccc(Cl)c2)oc1CC(=O)c1ccc(CN2CCCC2)cc1` [CBK047558], the viability at 28.5 h, 10 µM amounted to 95.3%.

Take `Cc1ccc(-c2csc(CC#N)n2)cc1` [CBK047576]: the viability at 28.5 h, 10 µM amounted to 79.3%.

For `O=S(=O)(NCc1cccc(F)c1F)c1cc2c(N3CCNCC3)nccc2s1` [CBK047588C], the viability at 28.5 h, 10 µM stood at 103%.

On to `CN(C)C(=O)c1ccc(Cn2nc(C(=O)Nc3nccs3)c3ccccc32)cc1` [CBK047701], for which the viability at 28.5 h, 10 µM (bulk resorufin, single well) worked out at 95.4%.

As to `O=C(NC1CC1)c1nn(Cc2ccc(S(=O)(=O)N3CCCCC3)cc2)c2ccccc12` [CBK047820], the viability at 28.5 h, 10 µM (bulk resorufin, single well) turned out to be 106%.

For the compound `Cc1ccc(Cn2nc(C(=O)NCCc3c[nH]c4ccccc34)c3ccccc32)cc1` [CBK047830], the viability at 28.5 h, 10 µM (bulk resorufin, single well) is 98.7%.

In the case of `Cc1ccc(Cn2nc(C(=O)NCC3COc4ccccc4O3)c3ccccc32)cc1` (stereo not drawn) [CBK047831], the viability at 28.5 h, 10 µM (bulk resorufin, single well) stood at 91.2%.

For `Cc1ccc(Cn2nc(C(=O)Nc3nc4ccccc4s3)c3ccccc32)cc1` [CBK047837], for the setting “bulk resorufin, single well”, the viability at 28.5 h, 10 µM is 92.4%.

`Cc1ccc(Cn2nc(C(=O)Nc3cc(C)nn3C)c3ccccc32)cc1` [CBK047842]: the viability at 28.5 h, 10 µM (bulk resorufin, single well) stood at 77.9%.

Turning to `Cc1ccc(Cn2nc(C(=O)Nc3cc(C)on3)c3ccccc32)cc1` [CBK047844], for the setting “bulk resorufin, single well”, the viability at 28.5 h, 10 µM was 98.7%.

For `Cc1ccc(Cn2nc(C(=O)Nc3ccc4c(c3)OCO4)c3ccccc32)cc1` [CBK047847], the viability at 28.5 h, 10 µM (bulk resorufin, single well) was 87%.

For `COc1ccc(Cn2nc(NS(=O)(=O)c3cn(C)cn3)c3ccccc32)cc1` [CBK048143], the viability at 28.5 h, 10 µM came out at 87.7%.

Turning to `Cc1nn(C)c(Cl)c1S(=O)(=O)Nc1nn(Cc2ccc(C#N)cc2)c2ccccc12` [CBK048185], the viability at 28.5 h, 10 µM stood at 111%.

For `Cc1ccc(Cn2nc(NC(=O)c3ccccc3)c3ccccc32)cc1` [CBK048213], the viability at 28.5 h, 10 µM was 97.5%.

In the case of `Cc1ccc(Cn2nc(NC(=O)c3cccn3C)c3ccccc32)cc1` [CBK048214], the viability at 28.5 h, 10 µM was 97.4%.

Consider `Cc1ccc(Cn2nc(NC(=O)C3CCCCC3)c3ccccc32)cc1` [CBK048217], for which the viability at 28.5 h, 10 µM came out at 96.5%.

Regarding `O=C(Nc1nn(Cc2ccc(Oc3ccccc3)cc2)c2ccccc12)c1ccno1` [CBK048224], the viability at 28.5 h, 10 µM is 97.8%.

As for `CC(=O)Nc1nn(Cc2cc3c(cc2Cl)OCO3)c2ccccc12` [CBK048251], the viability at 28.5 h, 10 µM amounted to 96.5%.

For `N#Cc1ccc(Cn2nc(NC(=O)c3ccco3)c3ccccc32)cc1` [CBK048260], the viability at 28.5 h, 10 µM was determined as 91.8%.

As for `COc1cccc(C(=O)Nc2nn(Cc3ccc(C(F)(F)F)cc3)c3ccccc23)c1` [CBK048273], the viability at 28.5 h, 10 µM came out at 83.9%.

In the case of `COc1ccc(Cn2nc(NC(=O)OC(C)C)c3ccccc32)cc1` [CBK048404], the viability at 28.5 h, 10 µM was found to be 106%.

For `COCC(C)NC(=O)c1nn(-c2nc3ccccc3s2)c2ccccc12` (stereo not drawn) [CBK048488], the viability at 28.5 h, 10 µM was 92.6%.

Consider `COc1ccc(NC(=O)c2nn(-c3nc4ccccc4o3)c3ccccc23)cc1` [CBK048492], for which the viability at 28.5 h, 10 µM was determined as 93.8%.

`Cn1c(-c2ccc(CN3CCCC3)cc2)cc2onc(-c3cccnc3)c2c1=O` [CBK048501C]: the viability at 28.5 h, 10 µM came out at 99.1%.

For the compound `O=C(NOCc1ccccc1)c1nn(-c2ncccn2)c2ccccc12` [CBK048503], the viability at 28.5 h, 10 µM worked out at 93.1%.

With `Cc1cc(NC(=O)c2nn(-c3ncccn3)c3ccccc23)n(C)n1` [CBK048505], the viability at 28.5 h, 10 µM is 92.3%.

Turning to `COc1ccc2nc(-n3nc(C(=O)NCc4ccncc4)c4ccccc43)sc2c1` [CBK048521], the viability at 28.5 h, 10 µM worked out at 94.9%.

Turning to `CS(=O)(=O)Nc1nn(-c2ccc(NC(=O)c3ccno3)cc2)c2ccccc12` [CBK048591], the viability at 28.5 h, 10 µM was determined as 99.5%.

Regarding `O=c1[nH]c2cccc(O)c2o1` [CBK048613], the viability at 28.5 h, 10 µM was 90.9%.

As for `Cc1ccc2c(c1)c(NS(C)(=O)=O)nn2Cc1ccc(C#N)cc1` [CBK048643], the viability at 28.5 h, 10 µM is 94.2%.

Turning to `Cc1ccc2c(c1)c(NC(=O)OC(C)C)nn2Cc1cc2c(cc1Cl)OCO2` [CBK048652], the viability at 28.5 h, 10 µM worked out at 99.9%.
